Data from publication PMC9243172 (Heliyon, 2022).

Experiments:
P-gp = P-gp (Homo sapiens, UniProt P08183); test: Rhodamine-123 permeability across Caco-2 cell monolayers; settings: Caco-2, pH 7.4
CYP3A4 = CYP3A4 (Homo sapiens, UniProt P08684); test: Inhibition of CYP3A4; type: biochemical
CYP1A2 = molecular target: T1, CYP1A2 (Homo sapiens, UniProt P05177); test: Inhibition of CYP1A2; type: biochemical
T1 sequence (P05177 1-516): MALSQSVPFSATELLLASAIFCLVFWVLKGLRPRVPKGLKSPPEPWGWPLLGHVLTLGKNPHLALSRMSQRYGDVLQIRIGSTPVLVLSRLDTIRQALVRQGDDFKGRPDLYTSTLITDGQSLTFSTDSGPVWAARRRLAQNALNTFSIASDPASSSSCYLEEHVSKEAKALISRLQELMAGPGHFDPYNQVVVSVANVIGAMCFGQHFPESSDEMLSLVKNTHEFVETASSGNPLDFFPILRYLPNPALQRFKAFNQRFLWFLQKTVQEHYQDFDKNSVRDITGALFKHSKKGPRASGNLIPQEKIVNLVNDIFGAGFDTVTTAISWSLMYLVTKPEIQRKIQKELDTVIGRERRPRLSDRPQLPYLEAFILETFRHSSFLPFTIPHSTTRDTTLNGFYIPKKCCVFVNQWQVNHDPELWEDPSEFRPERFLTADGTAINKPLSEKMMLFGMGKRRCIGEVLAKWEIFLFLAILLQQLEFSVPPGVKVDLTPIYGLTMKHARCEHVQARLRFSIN

CYP2D6 = CYP2D6 (Homo sapiens, UniProt P10635); test: Inhibition of CYP2D6; type: biochemical
Sequence of CYP2D6 (P10635 whole entry): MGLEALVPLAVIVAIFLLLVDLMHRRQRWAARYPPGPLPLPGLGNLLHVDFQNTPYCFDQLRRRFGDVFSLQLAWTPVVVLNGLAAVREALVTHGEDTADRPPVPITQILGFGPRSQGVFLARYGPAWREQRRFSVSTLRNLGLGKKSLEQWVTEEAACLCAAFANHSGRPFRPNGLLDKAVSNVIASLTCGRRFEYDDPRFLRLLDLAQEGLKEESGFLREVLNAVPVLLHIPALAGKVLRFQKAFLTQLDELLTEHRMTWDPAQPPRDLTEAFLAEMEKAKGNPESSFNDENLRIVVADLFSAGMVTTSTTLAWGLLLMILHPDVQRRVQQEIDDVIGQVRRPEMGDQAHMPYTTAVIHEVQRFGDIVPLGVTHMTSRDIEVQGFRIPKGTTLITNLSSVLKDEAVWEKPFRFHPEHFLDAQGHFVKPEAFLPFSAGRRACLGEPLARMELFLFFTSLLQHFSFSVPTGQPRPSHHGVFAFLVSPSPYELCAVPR

CYP2C9 = CYP2C9 (Homo sapiens, UniProt P11712); test: Inhibition of CYP2C9
Sequence of CYP2C9 (P11712 whole entry): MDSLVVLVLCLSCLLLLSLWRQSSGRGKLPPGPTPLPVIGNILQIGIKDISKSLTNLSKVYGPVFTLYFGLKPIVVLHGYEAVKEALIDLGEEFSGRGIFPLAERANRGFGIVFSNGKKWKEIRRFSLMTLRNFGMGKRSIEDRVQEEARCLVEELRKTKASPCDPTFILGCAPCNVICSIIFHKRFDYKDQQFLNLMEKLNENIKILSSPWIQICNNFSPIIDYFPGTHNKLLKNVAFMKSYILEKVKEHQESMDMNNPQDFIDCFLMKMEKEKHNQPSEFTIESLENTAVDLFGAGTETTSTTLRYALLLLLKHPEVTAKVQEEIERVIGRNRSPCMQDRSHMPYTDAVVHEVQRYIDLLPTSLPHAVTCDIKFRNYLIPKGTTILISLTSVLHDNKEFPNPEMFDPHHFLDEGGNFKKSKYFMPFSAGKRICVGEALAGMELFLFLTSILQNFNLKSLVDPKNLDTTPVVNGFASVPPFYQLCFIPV

[1] = Pharmacokinetic interaction of Triphala extract with phenacetin in rats; settings: for k el: Kel; for half-life: T1/2, rats
[2] = Pharmacokinetic interaction of Triphala extract with midazolam in rats; settings: for k el: Kel; for half-life: T1/2, rats
[3] = male, Wistar, rat, plasma, iv, 5 mg/kg, rats, phenacetin 5 mg/kg iv, control (phenacetin alone)
[4] = male, Wistar, rat, plasma, po, 30 mg/kg, rats, phenacetin 30 mg/kg oral, control (phenacetin alone)
[5] = rats, oral co-administration of Triphala 500 mg/kg, vs control
[6] = rats, phenacetin 30 mg/kg oral, control (phenacetin alone)
[7] = male, Wistar, rat, plasma, iv, 5 mg/kg, rats, midazolam 5 mg/kg iv, control (midazolam alone)
[8] = male, Wistar, rat, plasma, po, 20 mg/kg, rats, midazolam 20 mg/kg oral, control (midazolam alone)
[9] = rats, midazolam 20 mg/kg oral, control (midazolam alone)

Sequence of P-gp (P08183 whole entry): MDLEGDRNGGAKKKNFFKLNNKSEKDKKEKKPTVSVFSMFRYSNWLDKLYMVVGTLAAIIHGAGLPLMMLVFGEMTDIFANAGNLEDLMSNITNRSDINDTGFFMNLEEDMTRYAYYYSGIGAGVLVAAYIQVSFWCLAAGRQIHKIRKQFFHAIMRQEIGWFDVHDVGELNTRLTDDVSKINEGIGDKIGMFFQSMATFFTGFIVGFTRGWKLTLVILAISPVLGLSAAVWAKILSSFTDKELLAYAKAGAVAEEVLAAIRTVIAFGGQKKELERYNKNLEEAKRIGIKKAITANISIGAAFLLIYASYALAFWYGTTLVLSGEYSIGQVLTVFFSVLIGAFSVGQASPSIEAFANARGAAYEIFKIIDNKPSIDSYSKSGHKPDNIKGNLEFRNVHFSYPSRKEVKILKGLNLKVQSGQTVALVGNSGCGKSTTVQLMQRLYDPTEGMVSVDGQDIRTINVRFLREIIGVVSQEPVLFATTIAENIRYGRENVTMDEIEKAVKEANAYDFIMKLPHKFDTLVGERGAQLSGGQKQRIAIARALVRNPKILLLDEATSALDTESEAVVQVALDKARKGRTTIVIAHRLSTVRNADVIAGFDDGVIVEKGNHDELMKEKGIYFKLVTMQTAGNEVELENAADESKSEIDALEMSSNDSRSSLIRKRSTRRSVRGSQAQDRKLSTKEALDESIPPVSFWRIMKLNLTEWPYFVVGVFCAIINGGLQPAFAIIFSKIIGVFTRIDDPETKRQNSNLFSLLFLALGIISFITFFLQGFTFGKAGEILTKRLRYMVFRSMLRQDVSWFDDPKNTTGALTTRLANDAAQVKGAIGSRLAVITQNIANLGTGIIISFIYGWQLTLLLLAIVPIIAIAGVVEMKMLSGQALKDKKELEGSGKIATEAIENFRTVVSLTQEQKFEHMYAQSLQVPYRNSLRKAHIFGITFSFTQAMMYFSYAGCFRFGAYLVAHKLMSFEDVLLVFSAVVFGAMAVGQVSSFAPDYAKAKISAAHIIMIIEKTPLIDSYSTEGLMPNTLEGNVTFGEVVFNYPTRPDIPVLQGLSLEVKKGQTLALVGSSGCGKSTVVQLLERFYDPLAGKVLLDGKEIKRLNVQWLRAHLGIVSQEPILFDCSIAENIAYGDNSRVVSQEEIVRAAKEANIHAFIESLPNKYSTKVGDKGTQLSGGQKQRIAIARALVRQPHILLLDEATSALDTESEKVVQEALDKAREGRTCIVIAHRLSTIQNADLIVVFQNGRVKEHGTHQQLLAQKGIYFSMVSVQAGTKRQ
Sequence of CYP3A4 (P08684 whole entry): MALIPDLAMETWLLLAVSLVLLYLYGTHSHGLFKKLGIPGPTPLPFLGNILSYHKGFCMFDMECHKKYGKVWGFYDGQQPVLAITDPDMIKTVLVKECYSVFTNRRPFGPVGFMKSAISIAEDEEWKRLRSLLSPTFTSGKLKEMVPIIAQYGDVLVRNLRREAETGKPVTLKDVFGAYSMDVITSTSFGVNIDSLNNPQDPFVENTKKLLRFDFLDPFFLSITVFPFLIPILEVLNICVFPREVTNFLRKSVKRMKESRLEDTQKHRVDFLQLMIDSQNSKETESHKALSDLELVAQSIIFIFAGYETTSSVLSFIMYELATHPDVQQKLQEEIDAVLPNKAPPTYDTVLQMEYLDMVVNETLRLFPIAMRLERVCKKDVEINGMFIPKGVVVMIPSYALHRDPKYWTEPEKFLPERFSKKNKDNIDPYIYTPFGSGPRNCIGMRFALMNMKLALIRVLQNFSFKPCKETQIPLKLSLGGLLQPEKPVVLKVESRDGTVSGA

COC(=O)c1ccccc1-c1c2ccc(=N)cc-2oc2cc(N)ccc12 [Rhodamine 123, rhodamine-123] showed a Papp A→B at 120 min, 2.5 μg/mL (P-gp) of 64 ± 10 ×10⁻⁶ cm/s, a Papp B→A at 120 min, 2.5 μg/mL (P-gp) of 190 ± 3 ×10⁻⁶ cm/s and an efflux ratio at 120 min, 2.5 μg/mL (P-gp) of 3.2 ± 0.5.

In the case of O=c1oc2c(O)c(O)cc3c(=O)oc4c(O)c(O)cc1c4c23 [Ellagic acid], the IC50 (CYP3A4) is reported as 23.2 µM, the IC50 (CYP1A2) is reported as 12.6 µM and the IC50 (CYP2D6) is reported as 42.4 µM. For the same molecule, the IC50 (CYP2C9) was 27.1 µM.

CCOc1ccc(NC(C)=O)cc1 [phenacetin] showed an AUC(0-t) ([1]; male, Wistar, rat, plasma, iv, 5 mg/kg, AUC0-t, rats, phenacetin 5 mg/kg iv, control (phenacetin alone)) of 1770 ± 190 ng·h/mL, a clearance ([1]; male, Wistar, rat, plasma, iv, 5 mg/kg, CLtot, rats, phenacetin 5 mg/kg iv, control (phenacetin alone)) of 48.3 mL/min and a Cmax ([1]; male, Wistar, rat, plasma, iv, 5 mg/kg, Cmax, rats, phenacetin 5 mg/kg iv, control (phenacetin alone)) of 3650 ± 390 ng/mL. It also gave a k el [1, 3] of 0.000728 s⁻¹, an MRT [1, 3] of 21 ± 1.2 min and a half-life ([1]; male, Wistar, rat, plasma, iv, 5 mg/kg, phenacetin 5 mg/kg iv, control (phenacetin alone)) of 16.2 ± 1.2 min. The k el [1, 4] was 0.000206 s⁻¹, the MRT [1, 4] was 79.2 ± 12 min and the half-life ([1]; male, Wistar, rat, plasma, po, 30 mg/kg, phenacetin 30 mg/kg oral, control (phenacetin alone)) was 58.8 ± 7.2 min. The Tmax ([1]; male, Wistar, rat, plasma, po, 30 mg/kg, Tmax, rats, phenacetin 30 mg/kg oral, control (phenacetin alone)) was 19.8 ± 6 min, the “Enhancement of bioavailability (F) of phenacetin compared with control” value ([1]; rats, oral Triphala extract 100 mg/kg) was “approximately 1.2 fold” and the “Enhancement of bioavailability (F) of phenacetin compared with control” value ([1]; rats, oral Triphala extract 500 mg/kg) was about 1.6 fold. The “Increase of bioavailability of phenacetin” value [1, 5] was “about 61.2%”, the Vdss ([1]; rats, phenacetin 5 mg/kg iv, control (phenacetin alone)) was 1.02 ± 0.1 L/h and the Vdss ([1]; rats, phenacetin 5 mg/kg iv, oral Triphala extract 100 mg/kg) was 1.26 ± 0.2 L/h. It also gave a Vdss ([1]; rats, phenacetin 5 mg/kg iv, oral Triphala extract 500 mg/kg) of 0.93 ± 0.1 L/h, a CLtot/F [1, 6] of 7.74 ± 2.63 L/h and a Cmax [1, 6] of 3310 ± 670 ng/mL. It also gave a Vdss/F [1, 6] of 9.06 ± 1.9 L/h.

Cc1ncc2n1-c1ccc(Cl)cc1C(c1ccccc1F)=NC2 [midazolam] showed an AUC [2, 7] of 670 ± 270 ng·h/mL, a clearance ([2]; male, Wistar, rat, plasma, iv, 5 mg/kg, CLtot, rats, midazolam 5 mg/kg iv, control (midazolam alone)) of 83.5 mL/min and a Cmax [2, 7] of 910 ± 130 ng/mL. The k el [2, 7] was 0.00015 s⁻¹, the MRT [2, 7] was 64.8 ± 27.6 min and the half-life ([2]; male, Wistar, rat, plasma, iv, 5 mg/kg, midazolam 5 mg/kg iv, control (midazolam alone)) was 58.8 ± 23.4 min. It also gave an AUC [2, 8] of 1070 ± 70 ng·h/mL, a Cmax [2, 8] of 950 ± 130 ng/mL and a k el [2, 8] of 0.000194 s⁻¹. The MRT [2, 8] was 88.8 ± 14.4 min, the half-life ([2]; male, Wistar, rat, plasma, po, 20 mg/kg, midazolam 20 mg/kg oral, control (midazolam alone)) was 63.6 ± 11.4 min and the Tmax ([2]; male, Wistar, rat, plasma, po, 20 mg/kg, Tmax, rats, midazolam 20 mg/kg oral, control (midazolam alone)) was 22.8 ± 2.4 min. It also gave a Vdss ([2]; rats, midazolam 5 mg/kg iv, control (midazolam alone)) of 7.44 ± 4.0 L/h, a CLtot/F [2, 9] of 18.89 ± 1.08 L/h and a Vdss/F [2, 9] of 28.05 ± 4.9 L/h. For the same molecule, the “Increase of bioavailability of midazolam” value [2, 5] was about 40.7%.

With O=C(O)c1cc(O)c(O)c(O)c1 [Gallic acid] the IC50 (CYP1A2) was 89.9 µM, the IC50 (CYP2D6) was 265 µM and the IC50 (CYP2C9) was 338 µM.
